{"source": "patent US7582664B2", "about": "“Acylaminothiazole derivatives, preparation method thereof and use of same in therapeutics” (Sanofi-Aventis, priority 2004, dated 2009)", "target": "T1, gamma-secretase (Homo sapiens, UniProt P49768, M146L)", "T1 construct": "expressed in transfected cells; host or cells: CHO-K1 clone 30-12, co-expressing CT100 of APP and PS1 M146L", "assay": "β-amyloid cellular test: inhibition of production of β-amyloid (β-A4) peptide, ELISA of cell supernatants", "type": "cell-based", "conditions": "line CHO-K1 co-expressing the CT100 of APP and PS1 M146L clone 30-12; incubated 24-25 hours; secreted amyloid peptide by ELISA; read-out: EC50 (50% effective concentration), inhibition of production of the β-amyloid (β-A4) peptide", "from_the_text": "For the β-amyloid cellular test, the line CHO-K1 co-expressing the CT100 of APP and PS1 M146L clone 30-12 is used. The line targets the inhibition of gamma-secretase. […]\nThe amount of bound peptide is detected indirectly in the presence of a competitor corresponding to the truncated peptide, the biotin-coupled peptide 1-28, which is then detected with alkaline phosphatase-coupled streptavidin. The substrate, p-nitrophenyl phosphate (pNPP FAST p-Nitrophenyl Phosphate, Sigma N2770) gives a yellow soluble reaction product that can be read at 405 nm. […] After incubation for 30 minutes at room temperature, the reaction is quenched by adding 100 μl per well of 0.1M EDTA and the reading is taken at 405 nm.", "data": [{"compound": "CCC[C@H](NC(=O)Cc1cc(F)cc(F)c1)C(=O)Nc1nc(C(=O)OC)c(-c2ccccc2Oc2ccc(F)cc2)s1", "note": "[Compound 13, Methyl 2-{2-(S)-[2-(3,5-difluorophenyl)acetylamino]-pentanoyl}amino-5-[2-(4-fluorophenoxy)phenyl]thiazole-4-carboxylate]", "values": [{"measurement": "EC50", "result": 6, "unit": "nM"}]}]}
